Laboratory results as given in article PMC12598805, “Crystal Structure–Activity Relationship of Some MeO Phenylacrylonitriles: Dual Antimicrobial–Cytotoxic Effects and in Silico Perspectives” (ChemistryOpen, 2025).
Converted amounts (≈) assume the structure as drawn.

Tests used:
Format in all cases: cell-based
[1] = system: Pseudomonas aeruginosa (ATCC 27853); assay: Agar diffusion, zone of inhibition; settings: P.aeruginosa, compounds at 50 mg mL^−1; for zone of inhibition at 50 mg/mL: Pseudomonas aeruginosa, ATCC27853
Description: (§1) The antibacterial and antifungal activities were reported utilizing the method described by the Clinical & Laboratory Standards Institute.^[ [31], [32] ^] Agar diffusion method was used to determine the antimicrobial activity of the synthesized substances. The media used were mueller hinton agar (MHA) for bacteria and sabouraud‐dextrose agar (SDA) for fungi (Merck), as recommended by the manufacturer.
(§2) The synthesized compounds were initially investigated for their antimicrobial activity to elucidate the potential therapeutic utility against various pathogenic microbes using the agar plate diffusion method. The compounds were tested at a concentration of 50 mg mL^−1, and the antibiotics (ampicillin, kanamycin, and amphotericin B) were used at 5 mg mL^−1. […] K.pneumoniae and B.cereus were resistant to ampicillin, while they were susceptible to kanamycin with inhibition values of 30 and 26 mm, respectively. No antimicrobial activity of the compounds was observed against E.faecalis, S.typhimurium, K.pneumoniae, and for the fungus compared to Amphotericin B (20 mm). […]
Pseudomonas aeruginosa (ATCC 27853) […]
(§3) ATCC: American Type Culture Collection; NRRL: Northern Regional Research Laboratory The compounds 2(a-c) obtained could only be completely solubilised with dimethyl sulphoxide (DMSO) and the highest possible stock solutions of 50 mg.mL-1 were prepared. To these wells 50 μl of the previously prepared substances were transferred using sterile micropipette tips. For comparison, Ampicillin and kanamycin antibiotics for bacteria and Amphotericin B antibiotics for fungus were used as positive controls and DMSO was used as negative control. The prepared petri plates were kept at +4°C for about 1 hour and then the bacterial cultures were incubated at 37°C for 18-24 hours and mould cultures at 27-30°C for 48-72 hours. The zones formed were measured millimetrically with callipers. The experiments were performed with three repetitions. […]

[2] = system: Micrococcus luteus (NRRL-B-1018); assay: Agar diffusion, zone of inhibition; settings: M.luteus, compounds at 50 mg mL^−1; for zone of inhibition at 50 mg/mL: Micrococcus luteus, NRRLB1018
Description: as §1, §2
(§4) Micrococcus luteus (NRRL-B-1018) […]
as §3

[3] = system: Klebsiella pneumoniae (ATCC-70063); assay: Agar diffusion, zone of inhibition; settings: Klebsiella pneumoniae, ATCC70063; K.pneumoniae; compounds at 50 mg mL^−1
Description: as §1, §2
Klebsiella pneumoniae (ATCC-70063)
as §3

[4] = system: Staphylococcus aureus (ATCC 29213); assay: Broth microdilution MIC; settings: ATCC29213, S.aureus
Method: (§5) Staphylococcus aureus (ATCC 29213) […]
(§6) ATCC: American Type Culture Collection; NRRL: Northern Regional Research Laboratory The compounds 2(a-c) obtained could only be completely solubilised with dimethyl sulphoxide (DMSO) and the highest possible stock solutions of 50 mg.mL-1 were prepared. […]
(§7) 3.1. Determination of Minimum Inhibition Concentration (MIC)
(§8) The minimum inhibition concentration (MIC) values of the compounds 2(a-c) against the test bacteria used in the study were determined according to the broth microdilution method.[1-2] MHB or SDB was used as test medium and bacterial and yeast suspensions were prepared at 0.5 Mc Farland concentration for each test bacteria. Double layer serial dilutions were prepared in "U" type 96-well microtiter plates. Medium+bacteria suspensions containing only medium in the first row, medium+bacteria in the second row and the final concentrations of the synthesised substances in the other rows between 25 mg.mL-1 and […] were added to the wells with a final volume of 200
(§9) μL. Ampicillin, Kanamycin and Amphotericin B standard antibiotics were used as positive controls.
(§10) Bacteria were incubated at 37±0.1 °C and C. albicans at 30±0.1 °C for 24-48 hours and the lowest concentration without growth was determined as MIC. Tests were performed in two parallel runs and mean values were given as a result. […]

[5] = system: Bacillus subtilis (ATCC-19659); assay: Broth microdilution MIC; settings: ATCC19659, B.subtilis, read-out: MIC
Method: as §6, §7, §8, §9, §10

[6] = system: Micrococcus luteus (NRRL-B-1018); assay: Broth microdilution MIC; settings: NRRLB1018, M.luteus
Method: as §4, §6, §7, §8, §9, §10

[7] = system: Staphylococcus aureus (ATCC 29213); assay: MBC by sub-culture from wells without growth; settings: ATCC29213, S.aureus
Method: as §5, §6, §7, §8, §9
Bacteria were incubated at 37±0.1 °C and C. albicans at 30±0.1 °C for 24-48 hours and the lowest concentration without growth was determined as MIC. Tests were performed in two parallel runs and mean values were given as a result. In order to estimate “the minimum bactericidal/fungicidal concentrations (MBC/MFC) of the synthesised acrylonitrile derivatives “needed to indicate […] killing of the original inoculum,” 10 μl was taken from the wells with no observed growth and further sub-cultured onto their agar media (MHA and SDA for bacterial and fungal strains, respectively).[3] […]

| SMILES | zone of inhibition [1] | zone of inhibition at 50 mg/mL [1] | zone of inhibition [2] | zone of inhibition at 50 mg/mL [2] | zone of inhibition at 50 mg/mL [3] | MIC [4] | MIC [5] | MIC [6] | MBC [7] |
| --- | --- | --- | --- | --- | --- | --- | --- | --- | --- |
| COc1ccc(C=C(C#N)c2ccccc2)cc1 [2a, 3‐(4‐methoxyphenyl)‐2‐phenylacrylonitrile] | 13 ± 1.41 mm | 13 mm | 14 ± 0.71 mm | 14 mm | < 6 mm | 12.5 mg/mL (≈ 53.1 mM) | 25 mg/mL (≈ 106 mM) | 6.25 mg/mL (≈ 26.6 mM) | 25 mg/mL (≈ 106 mM) |
| COc1ccc(/C=C(\C#N)c2ccc(F)cc2)cc1 [2b] | 12 ± 0.71 mm | 12 mm | 14 ± 0.71 mm | 14 mm | < 6 mm | 12.5 mg/mL (≈ 49.4 mM) | 25 mg/mL (≈ 98.7 mM) | 12.5 mg/mL (≈ 49.4 mM) | 25 mg/mL (≈ 98.7 mM) |
| COc1ccc(/C=C(\C#N)c2cc(C(F)(F)F)cc(C(F)(F)F)c2)cc1 [2c] | 15 ± 0.71 mm | 15 mm | 15 ± 0.71 mm | 15 mm | < 6 mm | 6.25 mg/mL (≈ 16.8 mM) | 25 mg/mL (≈ 67.3 mM) | 2.5 mg/mL (≈ 6.73 mM) | 12.5 mg/mL (≈ 33.7 mM) |
